The record followed here is patent US20250093329A1, “SCREENING OF COMPOUNDS” (THE UNIVERSITY OF TULSA, priority 2022, published 2025).

The subject of this experiment is BxPC3. The experiment can be described thus: ATP levels by CellTiter-Glo, compound alone or with metabolic inhibitor (Table 1). It is filed as cell-based. The note with it: compound 100 uM + 2DG (about 10-20 mM), DMEM + 10% FBS, two hour incubation, DMSO control. From the text:
The improved method for identifying such compounds measures ATP levels as a function of light emitted by any ATP dependent luciferase or modified luciferases, i.e. luciferase derivatives. The method uses a conventional luminescent assay to determine the number of viable cells in a culture. The improvement provided by the present method results from pre-treating cells used in the assays with a metabolic inhibitor prior to treatment with the compound of interest, or switching the cells to a media formulated to force use of a specific metabolic pathway. Luminescent assays for determining cytotoxicity are well known in the art. […]
Following treatment of the control and test cells with the metabolic inhibitor (or switching to a new media), the method calls for addition of the compound to be screened for anti-cancer properties to the cells. […] Following completion of the selected time period, the ATP level within the cell is determined. ATP levels can be determined by luminescence according to standard measuring procedures, i.e. the luminescence level of the assay from the living cells treated with the two component composition is compared to the luminescence level of the assay from the living cells without the two component composition, i.e., the control experiment. […]
On the technique in general: ATP-based viability assays read luminescence as a measure of living cells.

Entries after “also recorded” stand apart in the source; their conditions may differ.

Turning to `O=S(=O)(NCc1c[nH]c2ccccc12)c1ccc(Cl)cc1` [Compound 2, N-[(1H-indol-3-yl)methyl]-4-chlorobenzenesulfonamide], the “percent of control (POC), ATP luminescence” value is on record as “remarkable value; also recorded: effectiveness”.
